Assay results taken from patent EP2966448B1, “METHOD FOR THE PREDICTION OR PROGNOSIS OF THE RESPONSE OF A HUMAN SUBJECT SUFFERING FROM CANCER TO TREATMENT WITH AN ANTAGONIST OF THE NK1 RECEPTOR” (priority 2013, dated 2014).
Read-outs that look alike come from different tables or passages of the source.

Tests used:
[1] = tested on: Carcinoma of the uterine cervix; test: Inhibition of primary tumor cell cultures (48 hours) vs NK1 receptor immunostaining (Example 1); format: cell-based; conditions: Homo sapiens, 1 micromolar, read-out: Percentage of inhibition of cell cultures
Description: (§1) Cell cultures. To obtain tumor cells from human primary tumors we used the method described in De Bari et al. (De Bari et al. 2001). Briefly, small pieces of the tumors were digested into a hyaluronidase solution (Sigma-Aldrich, USA) at a concentration of 1 mg/ml during 15 minutes at 37°C, and then they were treated with 6 mg/ml of collagenase type IV (Invitrogen) during 2 hours at 37°C. Consecutively, cells were washed, and resuspended in the DMEM culture medium with high concentration of glucose (Dulbecco's Modified Eagle's Medium, Invitrogen) supplemented with 1% of antibiotics-antimycotics (Invitrogen) and with 1% of sodium pyruvate (Invitrogen), and the cells were seeded in culture slides at a concentration of 10.000 cells per square centimeter. When cells reached confluence, the adherent cells were separated using sterile trypsin at 0,5% (Invitrogen) and they were used among passages 3 and 9. For the assays shown next, tumor cells were seeded on slides at a concentration of 25.000 cells per well. A total of 6 wells containing the tumor cells were used as survival control. […] All the cultures were kept during 48 hours and later on recollected for their analysis.
(§2) Immunohistochemistry techniques. The presence of NK1 receptors was also analyzed using immunohistochemistry techniques. Briefly, a sample of each of the cultures of the cell lines used in the present invention, was centrifuged (5 minutes at 1.500 rpm) and the pellet obtained was dehydrated using increasing concentrations of ethanol and, finally, xylol. Then, said dehydrated samples were embedded in paraffin, creating a block of cells. Such paraffin blocks were cut with a microtome at 5 microns thickness, and were placed on microscope slides adequate to perform immunohistochemistry techniques. Consecutively, they were de-paraffinized by immersing them in xylol, to be finally hydrated using a solution containing decreasing concentrations of ethanol, and finally submerged them into water. […] After this, the samples were left to cool down at room temperature for 10 minutes. The endogenous peroxidase activity was blocked with 3% peroxide of hydrogen for 30 minutes at room temperature. After washing the samples with 0.05 M of Tris buffer, they were incubated with 10% non-immune pork serum at for 30 minutes at room temperature. To analyze the expression of NK1 receptors, the cellular samples were incubated in the presence of anti-NK1 antibodies (S8305, Sigma-Aldrich) diluted 1:1000, overnight at 4°C. Afterwards, the samples were washed in Tris buffer 0.05 M at room temperature. The next step was the addition of Envision System-HRP (Dako) reagents for 30 minutes at room temperature. Then, the samples were washed again in Tris buffer 0.05 M and the immunoreactivity was visualized through light microscopy with a chromogenic solution containing 3,3'-Diaminobenzidine (DAB+; Dako, USA). To differentiate the cell nuclei, they were slightly stained with hematoxylin. As negative control, it was used samples not incubated with the primary antibody anti-NK1, which was replaced by non-immune serum. All the samples were evaluated.
(§3) To value the immunostaining in each of the cases six cuts were performed to be analyzed by the immunohistochemistry technique. In each of the six cuts, it was counted cells in 20 fields (magnification 400x) using an Olympus microscope (model CX31). In each field it was counted the total number of cells and the number of cells presenting immunostaining, calculating afterwards the percentage of cells which presented immunostaining.

[2] = tested on: Ovarian carcinoma (Adenocarcinoma); test: Inhibition of primary tumor cell cultures vs Kras mutation (Example 2); format: cell-based, human; conditions: Homo sapiens, 100 micromolar, read-out: Percentage of inhibition of cell cultures
Description: (§4) Cell cultures. […] Briefly, small pieces of the tumors were digested into a hyaluronidase solution (Sigma-Aldrich, USA) at a concentration of 1 mg/ml during 15 minutes at 37°C, and then they were treated with 6 mg/ml of collagenase type IV (Invitrogen) during 2 hours at 37°C. Consecutively, cells were washed, and resuspended in the DMEM culture medium with high concentration of glucose (Dulbecco's Modified Eagle's Medium, Invitrogen) supplemented with 1% of antibiotics-antimycotics (Invitrogen) and with 1% of sodium pyruvate (Invitrogen), and the cells were seeded in culture slides at a concentration of 10.000 cells per square centimeter. When cells reached confluence, the adherent cells were separated using sterile trypsin at 0,5% (Invitrogen) and they were used among passages 3 and 9. For the assays shown next, tumor cells were seeded on slides at a concentration of 25.000 cells per well. A total of 6 wells containing the tumor cells were used as survival control. […] All the cultures were kept during 48 hours and later on recollected for their analysis.
(§5) In each case the presence or not of mutations in K-ras gene was determined.
(§6) To determine the existence of mutations in the K-ras gene DNA from cancer tumor cells was extracted from samples obtained from the different cancer tumor cells, using DNA extraction kits from Takara (Madison, WI, US) or Ambion (Huntingdon, Cambridgeshire, United Kingdom), following the manufacturer's instructions, and as it has been previously published (Di Fiore F, et al. 2007). Consecutively it was analyzed by sequencing the exon 2 of the KRAS gene, , by means of PCR amplification from previously extracted cancer tumor DNA, using the following sense primer (SEQ ID NO. 15): 5'-[sequence]-3' and anti-sense primer (SEQ ID NO. 16): 5'-[sequence]-3'. After the purification using the Qiagen extraction kit, the PCR products were sequenced using the Big Dye Terminator Kit V3.1 (Applied Biosystems, Foster City, CA, U.S.) and an ABI Prism 377 or 3100 DNA sequencer (Applied Biosystems). The presence of a heterozygous mutation in the KRAS gene in cancer tumor cells of the cultures was defined as the appearance of a mutant peak of a height of at least a third of the wild type. All the sequence analysis were executed at least twice in two independent PCR.
(§7) The antibody against NK1 receptor (Table 16) was used at 1/50 concentration. The percentages of inhibition are expressed in percentage of variation in relation to control ± standard deviation.

[3] = tested on: Thyroid carcinoma (papillary carcinoma); test: as above; format: cell-based, human; conditions: Homo sapiens, 100 micromolar, read-out: Percentage of inhibition of cell cultures
Description: (§8) To obtain tumor cells from human primary tumors we used the method described in De Bari et al. (De Bari et al. 2001). Briefly, small pieces of the tumors were digested into a hyaluronidase solution (Sigma-Aldrich, USA) at a concentration of 1 mg/ml during 15 minutes at 37°C, and then they were treated with 6 mg/ml of collagenase type IV (Invitrogen) during 2 hours at 37°C. Consecutively, cells were washed, and resuspended in the DMEM culture medium with high concentration of glucose (Dulbecco's Modified Eagle's Medium, Invitrogen) supplemented with 1% of antibiotics-antimycotics (Invitrogen) and with 1% of sodium pyruvate (Invitrogen), and the cells were seeded in culture slides at a concentration of 10.000 cells per square centimeter. When cells reached confluence, the adherent cells were separated using sterile trypsin at 0,5% (Invitrogen) and they were used among passages 3 and 9. For the assays shown next, tumor cells were seeded on slides at a concentration of 25.000 cells per well. A total of 6 wells containing the tumor cells were used as survival control. […] All the cultures were kept during 48 hours and later on recollected for their analysis.
as §5, §6, §7

[4] = tested on: Non Hodgkin Lymphoma B (diffuse B cell lymphoma); test: as above; format: cell-based, human; conditions: Homo sapiens, B-cell, 100 micromolar, read-out: Percentage of inhibition of cell cultures
Description: as §1, §5, §6
The percentages of inhibition are expressed in percentage of variation in relation to control ± standard deviation.

[5] = tested on: human primary tumor cells; test: Inhibition of primary tumor cell cultures vs amplification of the gene encoding the NK1 receptor (Example 6; tumor type per table line); format: cell-based; conditions: for Percentage of inhibition of cell cultures: 100 micromolar
Description: as §4
The presence or absence of the amplification of the gene encoding for the NK1 receptor was determined, and then the cells were cultured in the presence of several antagonists of the NK1 receptor.
For each case, the presence or absence of amplification of the gene encoding for the NK1 receptor was determined.
In order to determine the presence of the amplification (increase in the number of copies) of the gene encoding the NK1 receptor (TAC1R), it was used the comparative genomic hybridization technique (CGH Array). Firstly genomic DNA was extracted from each case. Later, it was performed the marking and hybridization of the DNA of each sample together with DNA of a commercial reference without genomic alterations (from masculine or feminine sex, depending on the gender of the patient from whom the samples were obtained). The Array is Sureprint G3 Human CGH Microarray from the company Agilent was used, with an average separation between probes of 5.3Kb and 4.6Kb for the genes RefSeq. The reading of the microarray was done with the DNA Microarray Scanner G2565CA from Agilent, at a resolution of 3 µm. The analysis of the results was performed with the software Cytogenomics v 2.0.6.0 from Agilent with ADM-2: 6.0; Centralization: ON (Threshold: 6.0, Bin size: 10); Fuzzy zero: ON; Aberration filters: ON (minProbes=5 and minAvgAbsLopRatio= 0,5); Feature Level Filters : ON. The genomic coordinates are coincident with the NCBI36genome (hg18). Cases were distributed in two groups: Group I for those cases without the amplification of the gene encoding the NK1 receptor (locus 2p13.1-p12), and Group II for those cases with amplification of the gene encoding the NK1receptor (locus 2p13.1-p12).
The antibody against NK1 receptor (Table 36) was used at 1/50 concentration. The percentages of inhibition are expressed in percentages of variation in relation to control ± standard deviation.

[6] = tested on: Lung carcinoma (small cell lung carcinoma); test: Inhibition of primary tumor cell cultures vs Kras mutation (Example 2); format: cell-based, human; conditions: Homo sapiens, 100 micromolar, read-out: Percentage of inhibition of cell cultures
Description: as §8, §5, §6, §7

[7] = tested on: Thyroid carcinoma (folliculary type); test: Inhibition of primary tumor cell cultures (48 hours) vs NK1 receptor immunostaining (Example 1); format: cell-based; conditions: Homo sapiens, 1 micromolar, read-out: Percentage of inhibition of cell cultures
Description: as §1, §2, §3

Burkitt Lymphoma = test: as above; format: cell-based; conditions: Homo sapiens, 1 micromolar, read-out: Percentage of inhibition of cell cultures
Description: as §1, §2, §3

Pancreatic carcinoma = test: as above; format: cell-based; conditions: Homo sapiens, 1 micromolar, read-out: Percentage of inhibition of cell cultures
Description: as §1, §2, §3

Colon carcinoma = test: as above; format: cell-based; conditions: Homo sapiens, 1 micromolar, read-out: Percentage of inhibition of cell cultures
Description: as §1, §2, §3

[8] = NK1 receptor immunostaining Intensity grade 1
[9] = NK1 receptor immunostaining Intensity grade 2
[10] = NK1 receptor immunostaining Intensity grade 3
[11] = Cases with Kras non-mutated (wild type)
[12] = NK1 receptor immunostaining Group 1 (less than 20% of the cells)
[13] = NK1 receptor immunostaining Group 2 (20-80% of the cells)
[14] = NK1 receptor immunostaining Group 3 (more than 80% of the cells)

For CC(=O)N1CCN([C@H]2CCN(C(=O)N(C)[C@H](C)c3cc(C(F)(F)F)cc(C(F)(F)F)c3)[C@@H](c3ccc(F)cc3C)C2)CC1 [Casopitant], the inhibition at 1 µM [1, 8] was 33 ± 3%, the inhibition at 1 µM [1, 9] was 53 ± 3% and the inhibition at 1 µM [1, 10] was 92 ± 2%. The inhibition at 100 µM ([2]; Cases with Kras mutated) was 29 ± 4%, the inhibition at 100 µM [2, 11] was 97 ± 6% and the inhibition at 100 µM ([3]; Cases with Kras mutated) was 24 ± 5%. For the same molecule, the inhibition at 100 µM [3, 11] was 94 ± 5%, the inhibition at 100 µM ([4]; Cases with Kras mutated) was 26 ± 3% and the inhibition at 100 µM [4, 11] was 95 ± 4%. The “Percentage of inhibition of cell cultures” value ([5]; Breast carcinoma (ductal adenocarcinoma), Cases with amplification of the gene that encodes for the NK1 receptor) was 94±7 percentage, the “Percentage of inhibition of cell cultures” value ([5]; Breast carcinoma (ductal adenocarcinoma), Cases without amplification of the gene that encodes for the NK1 receptor) was 23±8 percentage and the “Percentage of inhibition of cell cultures” value ([5]; Burkitt Lymphoma, Cases with amplification of the gene that encodes for the NK1 receptor) was 93±6 percentage. The “Percentage of inhibition of cell cultures” value ([5]; Burkitt Lymphoma, Cases without amplification of the gene that encodes for the NK1 receptor) was 24±5 percentage, the “Percentage of inhibition of cell cultures” value ([5]; Carcinoma of the uterine cervix (Squamous cell carcinoma), Cases with amplification of the gene that encodes for the NK1 receptor) was 94±6 percentage and the “Percentage of inhibition of cell cultures” value ([5]; Carcinoma of the uterine cervix (Squamous cell carcinoma), Cases without amplification of the gene that encodes for the NK1 receptor) was 23±6 percentage. The “Percentage of inhibition of cell cultures” value ([5]; Colon carcinoma (Adenocarcinoma), Cases with amplification of the gene that encodes for the NK1 receptor) was 96±4 percentage, the “Percentage of inhibition of cell cultures” value ([5]; Colon carcinoma (Adenocarcinoma), Cases without amplification of the gene that encodes for the NK1 receptor) was 24±4 percentage and the “Percentage of inhibition of cell cultures” value ([5]; Endometrium carcinoma, Cases with amplification of the gene that encodes for the NK1 receptor) was 96±5 percentage. For the same molecule, the “Percentage of inhibition of cell cultures” value ([5]; Endometrium carcinoma, Cases without amplification of the gene that encodes for the NK1 receptor) was 24±4 percentage, the “Percentage of inhibition of cell cultures” value ([5]; Gastric carcinoma (Adenocarcinoma), Cases with amplification of the gene that encodes for the NK1 receptor) was 95±5 percentage and the “Percentage of inhibition of cell cultures” value ([5]; Gastric carcinoma (Adenocarcinoma), Cases without amplification of the gene that encodes for the NK1 receptor) was 23±5 percentage. The “Percentage of inhibition of cell cultures” value ([5]; Glioma (astrocytoma), Cases with amplification of the gene that encodes for the NK1 receptor) was 95±4 percentage, the “Percentage of inhibition of cell cultures” value ([5]; Glioma (astrocytoma), Cases without amplification of the gene that encodes for the NK1 receptor) was 24±6 percentage and the “Percentage of inhibition of cell cultures” value ([5]; Lung carcinoma (non small cell lung carcinoma), Cases with amplification of the gene that encodes for the NK1 receptor) was 96±5 percentage. For the same molecule, the “Percentage of inhibition of cell cultures” value ([5]; Lung carcinoma (non small cell lung carcinoma), Cases without amplification of the gene that encodes for the NK1 receptor) was 26±6 percentage, the “Percentage of inhibition of cell cultures” value ([5]; Lung carcinoma (small cell lung carcinoma), Cases with amplification of the gene that encodes for the NK1 receptor) was 95±4 percentage and the “Percentage of inhibition of cell cultures” value ([5]; Lung carcinoma (small cell lung carcinoma), Cases without amplification of the gene that encodes for the NK1 receptor) was 24±4 percentage. For the same molecule, the “Percentage of inhibition of cell cultures” value ([5]; Melanoma (Nodular Melanoma), Cases with amplification of the gene that encodes for the NK1 receptor) was 97±5 percentage, the “Percentage of inhibition of cell cultures” value ([5]; Melanoma (Nodular Melanoma), Cases without amplification of the gene that encodes for the NK1 receptor) was 26±4 percentage and the “Percentage of inhibition of cell cultures” value ([5]; Non Hodgkin Lymphoma B (diffuse B cell lymphoma), Cases with amplification of the gene that encodes for the NK1 receptor) was 95±7 percentage. The “Percentage of inhibition of cell cultures” value ([5]; Non Hodgkin Lymphoma B (diffuse B cell lymphoma), Cases without amplification of the gene that encodes for the NK1 receptor) was 27±5 percentage, the “Percentage of inhibition of cell cultures” value ([5]; Non Hodgkin Lymphoma T (diffuse T cell lymphoma), Cases with amplification of the gene that encodes for the NK1 receptor) was 95±5 percentage and the “Percentage of inhibition of cell cultures” value ([5]; Non Hodgkin Lymphoma T (diffuse T cell lymphoma), Cases without amplification of the gene that encodes for the NK1 receptor) was 28±7 percentage. For the same molecule, the “Percentage of inhibition of cell cultures” value ([5]; Ovarian carcinoma(Adenocarcinoma), Cases with amplification of the gene that encodes for the NK1 receptor) was 95±4 percentage, the “Percentage of inhibition of cell cultures” value ([5]; Ovarian carcinoma(Adenocarcinoma), Cases without amplification of the gene that encodes for the NK1 receptor) was 24±5 percentage and the “Percentage of inhibition of cell cultures” value ([5]; Pancreatic carcinoma (Adenocarcinoma), Cases with amplification of the gene that encodes for the NK1 receptor) was 97±5 percentage. For the same molecule, the “Percentage of inhibition of cell cultures” value ([5]; Pancreatic carcinoma (Adenocarcinoma), Cases without amplification of the gene that encodes for the NK1 receptor) was 26±6 percentage, the “Percentage of inhibition of cell cultures” value ([5]; Prostate carcinoma, Cases with amplification of the gene that encodes for the NK1 receptor) was 96±5 percentage and the “Percentage of inhibition of cell cultures” value ([5]; Prostate carcinoma, Cases without amplification of the gene that encodes for the NK1 receptor) was 27±5 percentage. For the same molecule, the “Percentage of inhibition of cell cultures” value ([5]; Renal cell carcinoma (clear cell renal cell carcinoma), Cases with amplification of the gene that encodes for the NK1 receptor) was 93±6 percentage, the “Percentage of inhibition of cell cultures” value ([5]; Renal cell carcinoma (clear cell renal cell carcinoma), Cases without amplification of the gene that encodes for the NK1 receptor) was 27±7 percentage and the “Percentage of inhibition of cell cultures” value ([5]; Thyroid carcinoma (follicular carcinoma), Cases with amplification of the gene that encodes for the NK1 receptor) was 94±6 percentage. The “Percentage of inhibition of cell cultures” value ([5]; Thyroid carcinoma (follicular carcinoma), Cases without amplification of the gene that encodes for the NK1 receptor) was 26±5 percentage, the “Percentage of inhibition of cell cultures” value ([5]; Thyroid carcinoma (papillary carcinoma), Cases with amplification of the gene that encodes for the NK1 receptor) was 96±5 percentage and the “Percentage of inhibition of cell cultures” value ([5]; Thyroid carcinoma (papillary carcinoma), Cases without amplification of the gene that encodes for the NK1 receptor) was 24±7 percentage. The “Percentage of inhibition of cell cultures” value ([5]; Undifferentiated Pleomorphic Sarcoma (malignant fibrous histiocytoma grade 3), Cases with amplification of the gene that encodes for the NK1 receptor) was 96±6 percentage, the “Percentage of inhibition of cell cultures” value ([5]; Undifferentiated Pleomorphic Sarcoma (malignant fibrous histiocytoma grade 3), Cases without amplification of the gene that encodes for the NK1 receptor) was 25±7 percentage and the “Percentage of inhibition of cell cultures” value ([5]; Urinary bladder carcinoma (transitional cell carcinoma), Cases with amplification of the gene that encodes for the NK1 receptor) was 97±3 percentage. The “Percentage of inhibition of cell cultures” value ([5]; Urinary bladder carcinoma (transitional cell carcinoma), Cases without amplification of the gene that encodes for the NK1 receptor) was 26±4 percentage, the “inhibition of cell proliferation” value ([5]; cancer cell cultures which show amplification in the genomic region encoding the NK1 receptor, compared, non-peptidic antagonists 100 micromolar, antibody 1/50) was “higher inhibition” and the inhibition at 100 µM ([6]; Cases with Kras mutated) was 26 ± 4%. For the same molecule, the inhibition at 100 µM [6, 11] was 94 ± 2%, the inhibition at 1 µM [7, 12] was 14 ± 3% and the inhibition at 1 µM [7, 13] was 44 ± 3%. The inhibition at 1 µM [7, 14] was 94 ± 4%, the inhibition at 1 µM [7, 8] was 34 ± 3% and the inhibition at 1 µM [7, 9] was 54 ± 5%. The inhibition at 1 µM [7, 10] was 93 ± 2%, the inhibition at 1 µM (Burkitt Lymphoma; [12]) was 15 ± 3% and the inhibition at 1 µM (Burkitt Lymphoma; [13]) was 46 ± 5%. It also gave an inhibition at 1 µM (Burkitt Lymphoma; [14]) of 94 ± 5%, an inhibition at 1 µM (Burkitt Lymphoma; [8]) of 37 ± 5% and an inhibition at 1 µM (Burkitt Lymphoma; [9]) of 55 ± 3%. The inhibition at 1 µM (Burkitt Lymphoma; [10]) was 93 ± 3%, the inhibition at 1 µM (Pancreatic carcinoma; [12]) was 10 ± 4% and the inhibition at 1 µM (Pancreatic carcinoma; [13]) was 45 ± 2%. It also gave an inhibition at 1 µM (Pancreatic carcinoma; [14]) of 92 ± 4%, an inhibition at 1 µM (Pancreatic carcinoma; [8]) of 33 ± 5% and an inhibition at 1 µM (Pancreatic carcinoma; [9]) of 53 ± 3%. It also gave an inhibition at 1 µM (Pancreatic carcinoma; [10]) of 93 ± 1%, an inhibition at 1 µM (Colon carcinoma; [12]) of 13 ± 3% and an inhibition at 1 µM (Colon carcinoma; [13]) of 46 ± 3%. For the same molecule, the inhibition at 1 µM (Colon carcinoma; [14]) was 92 ± 3%, the inhibition at 1 µM (Colon carcinoma; [8]) was 32 ± 4% and the inhibition at 1 µM (Colon carcinoma; [9]) was 54 ± 4%. It also gave an inhibition at 1 µM (Colon carcinoma; [10]) of 92 ± 2%.
